Data taken from patent US8809377B2, “Deubiquitinase inhibitors and methods for use of the same” (The Regents of the University of Michigan, priority 2010, dated 2014).
pIC50: −log10 of the molar value. Residues, ends and D or L forms follow the SMILES beside them. *: point of attachment. Cbz = O=C(OCc1ccccc1)*

What was measured:
[1] = test system: ubiquitinated proteins; experiment: Ubiquitin immunoblot of cell extracts; format: cell-based; settings: for accumulation of ubiquitinated proteins: Z138 cells; for ubiquitinated protein levels: CML cells
Description: (§1) Total cell lysates were prepared by boiling and sonicating cell pellets in 1× Laemmli reducing sample buffer. To prepare detergent soluble and insoluble fractions, cells were lysed in cold isotonic lysis buffer [10 mM Tris-HCl (pH 7.5), 0.5% Triton X-100, 150 mM NaCl along with Mini-Complete and PhosSTOP] for 15 min on ice and centrifuged 10 min at 20,000 RCF. The clarified supernatant was used as the detergent soluble cell fraction. The residual pellet was washed and extracted in Laemmli reducing sample buffer and briefly sonicated to derive the detergent insoluble fraction. Equal volumes of cellular lysate or equal protein amounts were electrophoresed on SDS-PAGE gels and transferred to nitrocellulose membranes (Whatmann, Dassel, Germany). Proteins were detected by immunoblotting.
Whole cell lysates were prepared by boiling and sonicating the cell pellets in 1× Laemmli reducing sample buffer. To prepare detergent soluble and insoluble fractions, cells were lysed in cold isotonic lysis buffer [10 mM Tris-HCl (pH 7.5), 0.5% Triton X-100, 150 mM NaCl along with Mini-Complete and PhosSTOP] for 15 min on ice and centrifuged 10 minutes at 20,000 RCF. The clarified supernatant was used as a source of the detergent soluble cell fraction. The detergent insoluble fraction was extracted by the sonication of residual pellet in equal volumes of boiling 1× Laemmli reducing sample buffer. Equal volumes of cellular lysate or equal protein amounts were electrophoresed on SDS-PAGE gels.

[2] = test system: DUB activity; experiment: Western / HA-UbVS labeling of DUB activity in intact cells; format: cell-based; settings: for DUBs labeling (HA-UbVS): Z138 treated cells, AG490 250 μM
Description: To assay for changes in activity of cellular deubiquitinase enzymes, leukemic cells were lysed in DUB buffer (50 mM Tris pH 7.4, 5 mM MgCl2, 150 mM NaCl) for 10 min at 4° C. The lysates were centrifuged at 20,000 RCF for 10 min and the supernatant was used for DUB labeling. Equal amounts of lysate were incubated with 500 ng of HA-UbVs for 1 hr at room temperature, followed by boiling in reducing sample buffer and resolving by SDS-PAGE. HA immunoblotting was used to detect DUB labeling.
To assay for changes in activity of cellular deubiquitinase enzymes, Z138 and HEK293 cells were lysed in DUB buffer (50 mM Tris pH 7.4, 5 mM MgCl2, 150 mM NaCl) for 10 min at 4° C. The lysates were centrifuged at 20,000 RFC for 10 min and the supernatant was used for DUB labeling. Equal amounts of lysate were incubated with 500 ng of HA-UbVs for 1 hr at room temperature, followed by boiling in reducing sample buffer and resolving by SDS-PAGE. After protein transfer to nitrocellulose membranes, HA immunoblotting was used to detect DUB labeling.
(§2) Cancer Res, 2010. 70(22): p. […] Blood, 2011. 117(11): p. […] Biochem Pharmacol, 2011. 82(4): p. […] Blood, 2007. 109(8): p. 3470-8.

[3] = test system: BV-173 and BV-173R; experiment: Anti-proliferative effects in CML lines; settings: BV-173 (WT Bcr-Abl) and BV-173R (T315I)
[4] = test system: Hsp70; experiment: Hsp70 immunoblot; format: cell-based; settings: CML cells
[5] = test system: tumor cell; experiment: Tumor cell proliferation; format: cell-based
From the text: WP1051 and WP1052 represent two earlier chemical analogues of WP1130. […] This was unexpected as WP1051 and WP1052 are chemically identical but structurally distinct isomers. Since apoptosis/anti-proliferative properties of WP1130 are related to its ability to suppress cellular DUBs and induce accumulation of ubiquitinated proteins, WP1051 and 1052 were investigated whether they can affect protein ubiquitination and DUB activity.

[6] = test system: Murine norovirus (MNV); experiment: Murine norovirus plaque assay; format: cell-based; settings: MNV-1 (MOI 5), RAW 264.7, 20 μM, 8 and 12 hours postinfection
Description: Viral titers were determined by plaque assay.
Cells were treated with IFN-β as a positive anti-viral control.

[7] = target: ubiquitin iso-peptidase activity; settings: read-out: IC50, ubiquitin iso-peptidase activity in cells; cited from earlier work
[8] = test system: WDT2; experiment: MTT cell growth and survival; format: cell-based; settings: WDT2 cell line
From the text: as §2

[9] = test system: Bcr-Abl; experiment: Bcr-Abl immunoblot of cell fractions; format: cell-based; settings: CML cells; WP1130 5 μM, bortezomib 50 nM
[10] = test system: cellular DUB activity; experiment: DUB activity of lysates from treated cells (Ub-AMC, Ub chain disassembly); format: cell-based; settings: Z138 cells, 5 μM WP1130 or 50 nM bortezomib, by 4 hours
Description: Cells were lysed in ice cold DUB buffer containing 50 mM Tris-HCl, pH 7.5, 0.5% NP-40, 5 mM MgCl2, 150 mM NaCl and 1 mM phenylmethylsulfonylfluoride. Briefly, 5 μg of clarified lysate from untreated or treated cells was incubated with 500 nM Ub-AMC in a 100 μL reaction volume at 37° C. and the release of AMC fluorescence was recorded at ex/em 380/480 using a spectrofluorometer. USP9x was immunoprecipitated from 500 μg of cell lysate and incubated in DUB buffer containing NEM, WP1130 or DMSO in a 100 μL reaction volume for 30 min. The reaction was initiated by the addition of 500 nM Ub-AMC and the release of AMC-fluorescence was recorded.
In vitro disassembly of purified polyubiquitin chains (K-48/K-63 linked) was performed as previously described. Five μg of lysate from untreated or WP1130 treated cells were prepared in DUB buffer and incubated with K48- or K-63 linked chains (1 μg) for 10 min at 37° C. The extent of chain disassembly was assessed by ubiquitin immunoblotting.
Inhibition of cellular deubiquitinases could lead to an increase in high molecular weight ubiquitinated proteins in the absence of proteasome inhibition. […] To directly assess the impact of WP1130 on DUB activity in treated cells, cell lysates from control and treated cells were incubated with ubiquitin-AMC and fluorescence generated as a consequence of substrate cleavage was measured as an indicator of DUB activity.
The effect of WP1130 treatment on in vitro deubiquitination/disassembly of purified K48-linked or K63-linked polyubiquitin chains was evaluated. Lysates from WP1130 treated (2 hr) or untreated cells were incubated with 1 μg of unanchored polyubiquitin chains for 5, 10 and 15 min at 37° C.

[11] = test system: K562; experiment: MTT cell growth and survival; format: cell-based; settings: K562 cell line
From the text: as §2

[12] = test system: USP9X; experiment: Western / HA-UbVS labeling of USP9X in intact cells or lysates; format: cell-based; settings: Z138 treated cells
[13] = test system: pStat5; experiment: Western blot of pStat5; format: cell-based; settings: SET, HEL cell lines
Description: as §1, §2

[14] = target: T1, 20S human proteasome (Homo sapiens, UniProt P28074); experiment: Proteasome activity assay on purified 20S proteasome; format: biochemical; settings: 5 μM
T1 construct: purchased BostonBiochem
Description: (§3) Fluorogenic substrate Suc-LLVY-AMC was used to assay for the chymotryptic-like activity of the 20S proteasome. To assay for in vivo proteasome inhibition cells were treated with WP1130 (5 μM) or MG132 (5 μM) for 2 hours and lysed in ice-cold lysis buffer (50 mM HEPES, pH 7.5, 5 mM EDTA, 150 mM NaCl, 1% Triton X-100). Lysates were clarified by centrifugation at 20,000 RCF for 10 min and equal amounts of protein from each sample were incubated at 37° C. with 100 μM fluorogenic substrate. To assay for direct inhibition of the 20S proteasome in vitro, purified 20S human proteasome (200 ng) was incubated with WP1130 (5 μM), MG132 (5 μM) or Lactacystin (5 μM) for 30 min at 37° C. before addition of the substrates. Fluorescence intensity was measured using a spectrophotometer at excitation 360 nm & emission 460 nm. Assays were performed in triplicate, and statistical significance was determined with a paired Student's t test.

[15] = target: T2, 20S proteasome (Homo sapiens, UniProt P28074); experiment: Proteasome activity assay in treated cells (Suc-LLVY-AMC); format: cell-based; settings: 5 μM, 2 hr
T2 construct: endogenous in cells; host or cells: K562 and other CML lines, Z138
T2 sequence (P28074 60-263): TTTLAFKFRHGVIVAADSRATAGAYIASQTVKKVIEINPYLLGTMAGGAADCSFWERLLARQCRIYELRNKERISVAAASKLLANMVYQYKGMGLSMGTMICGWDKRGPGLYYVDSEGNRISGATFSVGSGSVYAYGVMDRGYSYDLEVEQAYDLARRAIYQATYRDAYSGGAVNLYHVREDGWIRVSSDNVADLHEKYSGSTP
Description: as §3

**Q.** What does the source list for `N#C/C(=C/c1ccc(O)c(O)c1)C(=O)NCc1ccccc1` [AG490, reference compound]?
**A.** accumulation of ubiquitinated proteins [1]: did not induce a change; DUBs labeling (HA-UbVS) [2]: no change

**Q.** For `C=CCNC1=C2C[C@@H](C)C[C@H](OC)[C@H](O)[C@@H](C)/C=C(\C)[C@H](OC(N)=O)[C@@H](OC)/C=C\C=C(/C)C(=O)NC(=CC1=O)C2=O` [Compound 17-AAG, 17-Allylamino-17-demethoxygeldanamycin, reference compound], which anti-proliferative effects [3] is on record?
**A.** The anti-proliferative effects was “anti-proliferative effects”.

**Q.** What about the ubiquitinated protein levels [1] of the same molecule?
**A.** Its ubiquitinated protein levels is “no effect”.

**Q.** And the Hsp70 protein levels [4]?
**A.** The Hsp70 protein levels was “induction of Hsp70”.

**Q.** For `C[C@H](NC(=O)/C(C#N)=C/c1ccc(O)c([N+](=O)[O-])c1)c1ccccc1` [WP1052], which “suppression of tumor cell proliferation” value [5] is on record?
**A.** Its value is “failed to show any anti-tumor properties”.

**Q.** And the “accumulation of ubiquitinated proteins” value [1]?
**A.** The value was “failed to show any affect”.

**Q.** And the “DUBs labeling (HA-UbVS)” value [2]?
**A.** Its value is “no DUB inhibition”.

**Q.** And the “viral titers by plaque assay” value [6]?
**A.** Its value is “not”.

**Q.** With `O=C(C=Cc1ccccc1)C=Cc1ccccc1` [dibenzylideneacetone] as the molecule, how does the pIC50 [7] read?
**A.** Its pIC50 is 4.40 to 4.70.

**Q.** With `CCCCC[C@H](O)C/C=C1/C(=O)C=C[C@@H]1C/C=C\CCCC(=O)O` [D12-prostaglandin J2] as the molecule, how does the pIC50 [7] read?
**A.** Its pIC50 is roughly 4.52.

**Q.** With `C=C1C(=O)C2=CC1CCC(=O)C1(C)CCC(OC(C)=O)C(C)(C)C1CC2O` (stereo not shown) [shikoccin] as the molecule, how does the pIC50 [7] read?
**A.** The pIC50 was roughly 4.82.

**Q.** Which “MTT Activity relative to WP1130” value [8] does the source give for `CCCC(NC(=O)/C(C#N)=C/c1cccc(Br)n1)c1ccc(OCOC)cc1` (stereo not shown) [Compound 6, (E)-3-(6-Bromopyridin-2-yl)-2-cyano-N-(1-(4-(methoxymethoxy)phenyl)butyl)acrylamide] here?
**A.** Its value is “More sensitive”.

**Q.** Which “Bcr-Abl trafficking from detergent soluble to insoluble cell fraction” value [9] does the source give for `CC(C)C[C@H](NC(=O)[C@H](Cc1ccccc1)NC(=O)c1cnccn1)B(O)O` [Bortezomib, reference compound] here?
**A.** Its value is “no effect”.

**Q.** What about the ubiquitinated protein levels [1] of the same molecule?
**A.** The ubiquitinated protein levels was “elevated”.

**Q.** What about the “reduction of DUB activity (ubiquitin-AMC)” value [10] of the same molecule?
**A.** The value was “no change”.

**Q.** Which “MTT Activity relative to WP1130” value [11] does the source give for `CCC(NC(=O)/C(C#N)=C/c1cccc(Br)n1)c1ccc(OCCOC)cc1` (stereo not shown) [Compound 17, (E)-3-(6-Bromopyridin-2-yl)-2-cyano-N-(1-(4-(2-methoxyethoxy)phenyl)propyl)-acrylamide] here?
**A.** Its value is “Less sensitive”.

**Q.** For `C[C@H](NC(=O)/C(C#N)=C/c1ccc([N+](=O)[O-])c(O)c1)c1ccccc1` [WP1051], which “suppression of tumor cell proliferation” value [5] is on record?
**A.** The value was “effective in suppressing tumor cell proliferation”.

**Q.** And the “accumulation of ubiquitinated proteins” value [1]?
**A.** The value was “induce accumulation of ubiquitinated proteins in a dose-dependent fashion”.

**Q.** And the “HA-UbVS labeling of USP9x” value [12]?
**A.** The value was “could suppress the activity”.

**Q.** What about the “viral titers by plaque assay” value [6] of the same molecule?
**A.** The value was “reduced viral titers”.

**Q.** What does the source list for `CCC[C@H](NC(=O)C(C#N)C(SCC(O)CO)c1cccc(Br)n1)c1ccccc1` (stereo partly drawn) [Compound 20, 3-(6-Bromopyridin-2-yl)-2-cyano-3-((2,3-dihydroxypropyl)thio)-N—((S)-1-phenylbutyl)propanamide]?
**A.** MTT Activity relative to WP1130 [11]: More sensitive; Western Targets: pStat5 [13]: pStat5: down-regulated; DUB; Western Targets: DUB activity ([2]; SET, HEL cell lines): no effect

**Q.** Which “purified 20S proteasome activity (in vitro)” value [14] does the source give for `CC(C)C[C@@H](C=O)NC(=O)[C@H](CC(C)C)NC(=O)[C@H](CC(C)C)NC(=O)OCc1ccccc1` [MG-132, reference compound] (Cbz-Leu-Leu-Leu-aldehyde) here?
**A.** Its value is “substantially inhibited”.

**Q.** What about the “20S proteasome chymotryptic-like activity in intact cells (in vivo)” value [15] of the same molecule?
**A.** Its value is “substantially inhibited”.

**Q.** With `COc1cc(/C=C/C(=O)CC(=O)/C=C/c2ccc(O)c(OC)c2)ccc1O` [curcumin] as the molecule, how does the pIC50 [7] read?
**A.** The pIC50 was 4.00 to 4.10.

**Q.** With `CCCC(NC(=O)/C(C#N)=C/c1cccc(Br)n1)c1ccc(O)cc1` (stereo not shown) [Compound 7, (E)-3-(6-Bromopyridin-2-yl)-2-cyano-N-(1-(4-hydroxyphenyl)butyl)acrylamide] as the molecule, how does the “MTT Activity relative to WP1130” value [8] read?
**A.** The value was “More sensitive”.
